Laboratory results reported in PubChem BioAssay (NCI).
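Briefly, cells in 96-well plates were exposed to five compound concentrations for 48 h, and endpoints were estimated by linear interpolation. GI50 is the concentration that inhibits growth by half. Definition used: TGI = concentration required for complete inhibition of growth.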

What was measured:
Assay in all cases: NCI-60 cell line screen, 48 h
SF-539 CNS = tested on: SF-539 CNS
OVCAR-5 ovarian = tested on: OVCAR-5 ovarian
NCI-H226 lung = tested on: NCI-H226 lung
HOP-62 NSCLC = tested on: HOP-62 NSCLC
786-0 renal = tested on: 786-0 renal
SNB-75 CNS = tested on: SNB-75 CNS
HCT-15 colon = tested on: HCT-15 colon
CCRF-CEM leukemia = tested on: CCRF-CEM leukemia
MCF7 breast = tested on: MCF7 breast
NCI/ADR-RES ovarian = tested on: NCI/ADR-RES ovarian

## [O-][n+]1c2cc(CN3CCOCC3)c(CN3CCOCC3)cc2[n+]([O-])c2c(O)cccc21
SF-539 CNS
  TGI: 2.82 µM
OVCAR-5 ovarian
  TGI: 15.2 µM
NCI-H226 lung
  TGI: 30.9 µM
HOP-62 NSCLC
  TGI: 15.8 µM
786-0 renal
  TGI: 6.03 µM
SNB-75 CNS
  TGI: 21.3 µM
HCT-15 colon
  TGI: 8.14 µM
CCRF-CEM leukemia
  TGI: 4.02 µM

## N#CC(C(=O)CCC(=O)Nc1ccc(Cl)c(Cl)c1)c1ccc(Cl)cc1 (configuration not stated)
SF-539 CNS
  TGI: > 100 µM
OVCAR-5 ovarian
  TGI: > 100 µM
NCI-H226 lung
  TGI: > 100 µM
HOP-62 NSCLC
  TGI: > 100 µM
786-0 renal
  TGI: > 100 µM
SNB-75 CNS
  TGI: > 100 µM
HCT-15 colon
  TGI: > 100 µM

## O=C(NC1C=Nc2ccccc2NC1=O)c1ccccc1Cl (configuration not stated)
SF-539 CNS
  TGI: > 100 µM
OVCAR-5 ovarian
  TGI: > 100 µM
NCI-H226 lung
  TGI: > 100 µM
HOP-62 NSCLC
  TGI: > 100 µM
786-0 renal
  TGI: > 100 µM
SNB-75 CNS
  TGI: > 100 µM
HCT-15 colon
  TGI: > 100 µM
CCRF-CEM leukemia
  TGI: > 100 µM

## O=S(=O)(N/N=C/c1ccc(Cl)cc1Cl)c1ccccc1
SF-539 CNS
  TGI: > 100 µM
OVCAR-5 ovarian
  TGI: > 100 µM
NCI-H226 lung
  TGI: > 100 µM
HOP-62 NSCLC
  TGI: > 100 µM
786-0 renal
  TGI: > 100 µM
SNB-75 CNS
  TGI: > 100 µM
HCT-15 colon
  TGI: > 100 µM
CCRF-CEM leukemia
  TGI: > 100 µM

## NS(=O)(=O)c1ccc(NC(=O)c2cccc3c(Nc4ccc(S(N)(=O)=O)cc4)c4ccccc4nc23)cc1
SF-539 CNS
  TGI: > 100 µM
OVCAR-5 ovarian
  TGI: > 100 µM
HOP-62 NSCLC
  TGI: > 100 µM
786-0 renal
  TGI: > 100 µM
SNB-75 CNS
  TGI: > 100 µM
HCT-15 colon
  TGI: > 100 µM
CCRF-CEM leukemia
  TGI: 87.6 µM

## COc1ccc(/C=N\O[Si](C)(C)C(C)(C)C)cc1O[Si](C)(C)C(C)(C)C
SF-539 CNS
  TGI: 37.9 µM
OVCAR-5 ovarian
  TGI: 39 µM
HOP-62 NSCLC
  TGI: 36 µM
786-0 renal
  TGI: 30.8 µM
SNB-75 CNS
  TGI: 37.1 µM
HCT-15 colon
  TGI: 34 µM
CCRF-CEM leukemia
  TGI: 48 µM

## COc1cc2c(cc1OCCCCCn1c3ccccc3c3ccccc31)N=C[C@@H]1CCCN1C2=O
SF-539 CNS
  GI50: 1.85 µM
  TGI: 3.37 µM
OVCAR-5 ovarian
  GI50: 2.42 µM
  TGI: 5.49 µM
NCI-H226 lung
  GI50: 2.49 µM
  TGI: 8.48 µM
HOP-62 NSCLC
  GI50: 1.8 µM
  TGI: 3.91 µM
786-0 renal
  GI50: 1.73 µM
  TGI: 3.2 µM
SNB-75 CNS
  GI50: 1.05 µM
  TGI: 2.58 µM
MCF7 breast
  GI50: 2.33 µM
  TGI: 9.19 µM
NCI/ADR-RES ovarian
  GI50: 2.14 µM
  TGI: 4.75 µM
HCT-15 colon
  GI50: 1.67 µM
  TGI: 3.48 µM

## O=c1cc(-c2ccc(O)cc2)oc2cc(O)cc(O)c12
OVCAR-5 ovarian
  TGI: 68 µM
NCI-H226 lung
  TGI: 75.9 µM
HOP-62 NSCLC
  TGI: > 100 µM
786-0 renal
  TGI: > 100 µM
SNB-75 CNS
  TGI: 43.7 µM
HCT-15 colon
  TGI: > 100 µM
CCRF-CEM leukemia
  TGI: > 100 µM

## CCCCCCCCCCCCCCCCCc1nnc(N)o1
SF-539 CNS
  TGI: > 100 µM
OVCAR-5 ovarian
  TGI: > 100 µM
NCI-H226 lung
  TGI: > 100 µM
HOP-62 NSCLC
  TGI: > 100 µM
786-0 renal
  TGI: > 100 µM
SNB-75 CNS
  TGI: > 100 µM
HCT-15 colon
  TGI: > 100 µM

## O=CN1N=C(c2ccc(Nc3ccnc4cc(Cl)ccc34)cc2)CC1c1ccc(Cl)cc1 (configuration not stated)
SF-539 CNS
  GI50: 0.575 µM
  TGI: > 100 µM
OVCAR-5 ovarian
  GI50: 6.46 µM
  TGI: > 100 µM
NCI-H226 lung
  GI50: 4.66 µM
  TGI: > 100 µM
HOP-62 NSCLC
  GI50: 0.859 µM
  TGI: > 100 µM
786-0 renal
  GI50: 0.908 µM
  TGI: > 100 µM
MCF7 breast
  GI50: 0.48 µM
  TGI: > 100 µM
NCI/ADR-RES ovarian
  GI50: 0.359 µM
  TGI: > 100 µM
HCT-15 colon
  GI50: 0.58 µM
  TGI: > 100 µM

## O=C(O)c1cc(=O)c2cc(C(=O)c3cccs3)c(Cl)c(Cl)c2o1
OVCAR-5 ovarian
  TGI: > 100 µM
NCI-H226 lung
  TGI: > 100 µM
HOP-62 NSCLC
  TGI: > 100 µM
786-0 renal
  TGI: > 100 µM
SNB-75 CNS
  TGI: > 100 µM
CCRF-CEM leukemia
  TGI: > 100 µM

## O=C(CC(=O)C1CCOC1=O)C(=O)Nc1ccc(Cl)cc1 (configuration not stated)
SF-539 CNS
  TGI: > 100 µM
OVCAR-5 ovarian
  TGI: > 100 µM
NCI-H226 lung
  TGI: > 100 µM
HOP-62 NSCLC
  TGI: > 100 µM
786-0 renal
  TGI: > 100 µM
SNB-75 CNS
  TGI: > 100 µM
HCT-15 colon
  TGI: > 100 µM
CCRF-CEM leukemia
  TGI: > 100 µM

## CCCC(CCC)C(=O)OCC1(CO)C/C(=C\c2ccc(C(F)(F)F)cc2)C(=O)O1 (configuration not stated)
SF-539 CNS
  GI50: 11.8 µM
  TGI: 24.2 µM
OVCAR-5 ovarian
  GI50: 17.1 µM
  TGI: 31.7 µM
NCI-H226 lung
  GI50: 14.1 µM
  TGI: 33.1 µM
HOP-62 NSCLC
  GI50: 2.34 µM
  TGI: 15.1 µM
786-0 renal
  GI50: 10.1 µM
  TGI: 22.5 µM
SNB-75 CNS
  GI50: 12.1 µM
  TGI: 26.8 µM
MCF7 breast
  GI50: 17.4 µM
  TGI: 33.9 µM
NCI/ADR-RES ovarian
  GI50: 15.3 µM
  TGI: 32 µM
HCT-15 colon
  GI50: 12.8 µM
  TGI: 26.9 µM

## COc1ccc(C=C2C(=O)NC(=O)NC2=O)cc1OCc1ccccc1
SF-539 CNS
  GI50: 20.3 µg/mL
  TGI: 47.4 µg/mL
NCI-H226 lung
  GI50: 49.1 µg/mL
HOP-62 NSCLC
  GI50: 36.9 µg/mL
786-0 renal
  GI50: 52.9 µg/mL
SNB-75 CNS
  GI50: 22.9 µg/mL
MCF7 breast
  GI50: 59.6 µg/mL
NCI/ADR-RES ovarian
  GI50: 39.4 µg/mL
HCT-15 colon
  GI50: 30.8 µg/mL

## NC(=O)N/N=C(\CCC(=O)N(Cc1ccccc1)Cc1ccccc1)CC(=O)c1ccc(F)cc1
SF-539 CNS
  TGI: 62.4 µM
OVCAR-5 ovarian
  TGI: > 100 µM
NCI-H226 lung
  TGI: > 100 µM
HOP-62 NSCLC
  TGI: > 100 µM
786-0 renal
  TGI: 87.4 µM
HCT-15 colon
  TGI: > 100 µM
CCRF-CEM leukemia
  TGI: > 100 µM

## COC(=O)c1nc(N)nc(C(=O)OC)c1C(=O)c1ccccc1
SF-539 CNS
  TGI: > 100 µM
OVCAR-5 ovarian
  TGI: > 100 µM
786-0 renal
  TGI: > 100 µM
SNB-75 CNS
  TGI: > 100 µM
HCT-15 colon
  TGI: > 100 µM
CCRF-CEM leukemia
  TGI: > 100 µM

## COC1(Cc2ccccc2)C(=O)c2ccccc2N1C(C)=O (configuration not stated)
SF-539 CNS
  TGI: > 100 µM
HOP-62 NSCLC
  TGI: > 100 µM
786-0 renal
  TGI: > 100 µM
SNB-75 CNS
  TGI: > 100 µM
HCT-15 colon
  TGI: > 100 µM
CCRF-CEM leukemia
  TGI: > 100 µM

## COc1ccc(/C(C#N)=C(/N)SCc2ccccc2Cl)cc1
SF-539 CNS
  TGI: 32.5 µM
OVCAR-5 ovarian
  TGI: 32.9 µM
NCI-H226 lung
  TGI: 33.3 µM
HOP-62 NSCLC
  TGI: 34.1 µM
786-0 renal
  TGI: 32.7 µM
SNB-75 CNS
  TGI: 63.6 µM
CCRF-CEM leukemia
  TGI: > 100 µM

## CC(=O)O[C@H]1CC[C@@]2(C)C(=C/C(=N\[N+](=O)[O-])[C@H]3C4CCC([C@H](C)CCCC(C)C)[C@@]4(C)CCC32)C1 (some centres not stated)
SF-539 CNS
  TGI: > 100 µM
OVCAR-5 ovarian
  TGI: > 100 µM
NCI-H226 lung
  TGI: > 100 µM
HOP-62 NSCLC
  TGI: > 100 µM
786-0 renal
  TGI: > 100 µM
SNB-75 CNS
  TGI: > 100 µM
HCT-15 colon
  TGI: > 100 µM

## Cc1ccccc1NC(=O)c1cc2ccccc2cc1O
SF-539 CNS
  GI50: 3.55 µM
  TGI: 24.1 µM
OVCAR-5 ovarian
  GI50: 5.88 µM
  TGI: 85.6 µM
NCI-H226 lung
  GI50: 3.59 µM
  TGI: > 100 µM
HOP-62 NSCLC
  GI50: 2.47 µM
  TGI: 7.88 µM
786-0 renal
  GI50: 3.41 µM
  TGI: > 100 µM
SNB-75 CNS
  GI50: 2.43 µM
  TGI: 44.9 µM
MCF7 breast
  GI50: 3.46 µM
  TGI: 37.1 µM
NCI/ADR-RES ovarian
  GI50: 2.85 µM
  TGI: 8.79 µM
HCT-15 colon
  GI50: 3.84 µM
  TGI: > 100 µM

## CC(C)=CCc1cc(C2COc3cc4c(c(O)c3C2=O)C=CC(C)(C)O4)c(O)cc1O (configuration not stated)
SF-539 CNS
  TGI: 34.3 µM
OVCAR-5 ovarian
  TGI: 29.7 µM
HOP-62 NSCLC
  TGI: 32.3 µM
786-0 renal
  TGI: 36.7 µM
SNB-75 CNS
  TGI: 36 µM
MCF7 breast
  TGI: 33.5 µM
NCI/ADR-RES ovarian
  TGI: 79.4 µM
HCT-15 colon
  TGI: 26.9 µM
CCRF-CEM leukemia
  TGI: 28.7 µM

## O=c1[nH]cnc2c1ncn2CCCCO
SF-539 CNS
  TGI: > 100 µM
OVCAR-5 ovarian
  TGI: > 100 µM
NCI-H226 lung
  TGI: > 100 µM
HOP-62 NSCLC
  TGI: > 100 µM
786-0 renal
  TGI: > 100 µM
SNB-75 CNS
  TGI: > 100 µM
HCT-15 colon
  TGI: > 100 µM
CCRF-CEM leukemia
  TGI: > 100 µM
